Measured values published in PubChem BioAssay AID1259411 (Chemical Carcinogenesis Research Information System (CCRIS), 2018).
Calls of active or inactive are those of the source. How the calls were made is not given here.

System: rodent carcinogenicity bioassays, tumor incidence
Experiment: CCRIS carcinogenicity studies
Summary of the method: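 NCI-built, expert-reviewed records of carcinogenicity and related test outcomes (mutagenicity, tumor promotion/inhibition) compiled from published and report sources, historical span 1985-2011, not updated.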

With c1ccc2c(c1)cc1ccc3cccc4ccc2c1c34 the carcinogen call (Species: FISH, Strain/Sex: MT. SHASTA RAINBOW TROUT/MALE, FEMALE, Route: TRANSCHORIONIC INJECTION, Dose: 0, 0.09, 0.9, 9 UG IN DMSO ADMINISTERED IN OVO APPROXIMATELY 2 DAYS PRIOR TO HATCHING (STUDY DURATION: 1 YR), Dose: 0, 0.09, 0.9, 9 UG IN DMSO ADMINISTERED IN OVO APPROXIMATELY 2 DAYS PRIOR TO HATCHING (STUDY DURATION: 1 YR)) was “inactive; negative”, the carcinogen call (Species: FISH, Strain/Sex: MT. SHASTA RAINBOW TROUT/MALE, FEMALE, Route: TRANSCHORIONIC INJECTION, Dose: 0, 4.5, 9, 18 UG IN DMSO ADMINISTERED IN OVO APPROXIMATELY 2 DAYS PRIOR TO HATCHING, Dose: 0, 4.5, 9, 18 UG IN DMSO ADMINISTERED IN OVO APPROXIMATELY 2 DAYS PRIOR TO HATCHING, Tumor Site: Type of Lesion: LIVER: TUMOR) was “active; positive” and the carcinogen call (Species: FISH, Strain/Sex: RAINBOW TROUT/MALE, FEMALE, Route: INTRAPERITONEAL, Dose: 0, 1 MG IN 0.4 ML PROPYLENE GLYCOL 1/MO FOR 12 MO BEGINNING AT 10 MO OF AGE (STUDY DURATION: 18 MO), Tumor Site: Type of Lesion: LIVER: CARCINOMA) was “active; positive”. The carcinogen call (Species: FISH, Strain/Sex: RAINBOW TROUT/MALE, FEMALE, Route: ORAL, Dose: 0, 1000 PPM IN DIET FOR 18 MO (STUDY DURATION: 18 MO), Tumor Site: Type of Lesion: LIVER: CARCINOMA) was “active; positive”, the carcinogen call (Species: FISH, Strain/Sex: SHEEPSHEAD MINNOW/MALE, FEMALE, Route: IMMERSION, Dose: 0, 2, 30, 200 PPB APPROXIMATE CONCENTRATIONS ADMINISTERED 1/WK FOR 6 OR 24 HR FOR 1 OR 2 WK (STUDY DURATION: 39 WK), Dose: 0, 2, 30) was “inactive; negative” and the carcinogen call (Species: HAMSTER, Route: GAVAGE, Tumor Site: Type of Lesion: FORESTOMACH: PAPILLOMA, CARCINOMA) was “active; positive”. The carcinogen call (Species: HAMSTER, Route: INTRATRACHEAL, Tumor Site: Type of Lesion: LUNG) was “active; positive”, the carcinogen call (Species: HAMSTER, Route: ORAL, Dose: 500 PPM IN DIET 4 D/WK FOR UP TO 14 MO, Tumor Site: Type of Lesion: ESOPHAGUS, FORESTOMACH, INTESTINES, Tumor Site: Type of Lesion: ESOPHAGUS, FORESTOMACH, INTESTINES) was “active; positive” and the carcinogen call (Species: HAMSTER, Route: SUBCUTANEOUS, Dose: 2.5 MG, 3 MO, Tumor Site: Type of Lesion: INJECTION SITE: SARCOMA) was “active; positive”. For the same compound, the carcinogen call (Species: HAMSTER, Route: SUBCUTANEOUS, Tumor Site: Type of Lesion: INJECTION SITE: SARCOMA) was “active; positive”, the carcinogen call (Species: HAMSTER, Strain/Sex: MALE,FEMALE, Route: INTRATRACHEAL, Dose: 0.25-2 MG, 1/WK FOR 30 WK, Tumor Site: Type of Lesion: RESPIRATORY TRACT) was “active; positive” and the carcinogen call (Species: HAMSTER, Strain/Sex: SYRIAN/FEMALE, Route: INTRATRACHEAL, Dose: 0, 1 MG IN 0.1 ML PHOSPHATE BUFFER 15/WK FOR 4 MO (STUDY DURATION: 443 D), Tumor Site: Type of Lesion: TRACHEA: PAPILLOMA OR CARCINOMA) was “active; positive”. For the same compound, the carcinogen call (Species: HAMSTER, Strain/Sex: SYRIAN/MALE,FEMALE, Route: SUBCUTANEOUS, Dose: 0.0005-80 MG, 10 DOSES, Tumor Site: Type of Lesion: INJECTION SITE: SARCOMA) was “active; positive”, the carcinogen call (Species: HAMSTER, Strain/Sex: SYRIAN/MALE, Route: GAVAGE, Dose: 2-5 MG 2/WK FOR 1-11 MO, Tumor Site: Type of Lesion: STOMACH: CARCINOMA, PAPILLOMA) was “active; positive” and the carcinogen call (Species: MONKEY, Route: INTRATRACHEAL, Dose: 3-15 MG, 1/WK, Tumor Site: Type of Lesion: LUNG: SQUAMOUS CARCINOMA) was “active; positive”. For the same compound, the carcinogen call (Species: MONKEY, Strain/Sex: TUPAIA GLIS/MALE,FEMALE, Route: SUBCUTANEOUS, Dose: 10 MG, SINGLE DOSE, Tumor Site: Type of Lesion: INJECTION SITE: SARCOMA) was “active; positive”, the carcinogen call (Species: MOUSE, Route: SUBCUTANEOUS, Tumor Site: Type of Lesion: INJECTION SITE: SARCOMA) was “active; positive” and the carcinogen call (Species: MOUSE, Strain/Sex: A/J/MALE, Route: INTRAPERITONEAL, Dose: 0, 10, 100 MG/KG BW IN TRICAPRYLIN ONCE AT 4-5 WK OF AGE (STUDY DURATION: 7-8 MO), Dose: 0, 10, 100 MG/KG BW IN TRICAPRYLIN ONCE AT 4-5 WK OF AGE (STUDY DURATION: 7-8 MO), Tumor Site: Type of Lesion: LUNG: TUMOR) was “active; positive”. The carcinogen call (Species: MOUSE, Strain/Sex: B6C3F1/FEMALE, Route: ORAL, Dose: 0, 5, 25, 100 PPM IN DIET FOR 2 YR (STUDY DURATION: 2 YR), Dose: 0, 5, 25, 100 PPM IN DIET FOR 2 YR (STUDY DURATION: 2 YR), Tumor Site: Type of Lesion: FORESTOMACH: PAPILLOMA OR CARCINOMA, ESOPHAGUS: PAPILLOMA OR CARCINOMA, TONGUE: PAPILLOMA OR CARCINOMA, Tumor Site: Type of Lesion: FORESTOMACH: PAPILLOMA OR CARCINOMA, ESOPHAGUS: PAPILLOMA OR CARCINOMA, TONGUE: PAPILLOMA OR CARCINOMA) was “active; positive”, the carcinogen call (Species: MOUSE, Strain/Sex: B6C3F1/MALE, Route: INTRAPERITONEAL, Dose: 0, 0.005, 0.015 UMOL/G ONCE AT 12 DAYS OF AGE (STUDY DURATION: 10 MO), Dose: 0, 0.005, 0.015 UMOL/G ONCE AT 12 DAYS OF AGE (STUDY DURATION: 10 MO), Tumor Site: Type of Lesion: LIVER: HEPATOMA) was “active; positive” and the carcinogen call (Species: MOUSE, Strain/Sex: B6C3F1/MALE, Route: INTRAPERITONEAL, Dose: 0, 125, 250, 375 UG ADMINISTERED TO 15-DAY OLD MICE ONCE (STUDY DURATION: 52 WK), Dose: 0, 125, 250, 375 UG ADMINISTERED TO 15-DAY OLD MICE ONCE (STUDY DURATION: 52 WK), Tumor Site: Type of Lesion: LIVER: TUMOR) was “active; positive”.
